Source: patent publication US12187742B2 (XRAD Therapeutics, Inc., priority 2018, dated 2025)
Counter-ions that a name gives are not always drawn.

molecular target: ATM (Homo sapiens (Human), UniProt Q13315); assay: ATM in Cell Western Assay (pKAP1 in etoposide-treated MCF-7 cells); format: cell-based; settings: MCF-7 cells, etoposide 100 μM, 1 hr, pKAP1 readout
Protocol: Assay of Compounds ATM and DNA-PK Inhibition
ATM in Cell Western Assay:
Next day, add corresponding concentration of compounds using pin tool (Echo 550), the final top concentration is 1 μM, 3-fold series dilution, total 10 doses. Then add etoposide (Sigma, #E1383) to a final concentration of 100 μM. Incubate at 37° C. for 1 hr. Fix cells by adding 25 μL of fixing solution (8% paraformaldehyde) for 20 minutes at ambient temperature. Permeabilize cells for 5 washes with 1×PBS (phosphate buffered saline) containing 0.1% Triton X-100; each wash is for 5 minutes. […] The next day, wash the plate 5 times with 1×PBST (1×PBS containing 0.1% Tween-20). […] Wash the cells for 5 times with 1×PBST (1×PBS containing 0.1% Tween-20) at ambient temperature, using gentle shaking in the dark. After the last wash
remove wash solution, turn plate upside down onto a thin paper towel and centrifuge at 1000 rpm for 1 min to absorb all wash buffer. Clean the bottom of plate with moist lint free paper. Scan plate immediately using ODYSSEY CLx (LI-COR) for the best results.

ATM, sequence (Q13315 whole entry): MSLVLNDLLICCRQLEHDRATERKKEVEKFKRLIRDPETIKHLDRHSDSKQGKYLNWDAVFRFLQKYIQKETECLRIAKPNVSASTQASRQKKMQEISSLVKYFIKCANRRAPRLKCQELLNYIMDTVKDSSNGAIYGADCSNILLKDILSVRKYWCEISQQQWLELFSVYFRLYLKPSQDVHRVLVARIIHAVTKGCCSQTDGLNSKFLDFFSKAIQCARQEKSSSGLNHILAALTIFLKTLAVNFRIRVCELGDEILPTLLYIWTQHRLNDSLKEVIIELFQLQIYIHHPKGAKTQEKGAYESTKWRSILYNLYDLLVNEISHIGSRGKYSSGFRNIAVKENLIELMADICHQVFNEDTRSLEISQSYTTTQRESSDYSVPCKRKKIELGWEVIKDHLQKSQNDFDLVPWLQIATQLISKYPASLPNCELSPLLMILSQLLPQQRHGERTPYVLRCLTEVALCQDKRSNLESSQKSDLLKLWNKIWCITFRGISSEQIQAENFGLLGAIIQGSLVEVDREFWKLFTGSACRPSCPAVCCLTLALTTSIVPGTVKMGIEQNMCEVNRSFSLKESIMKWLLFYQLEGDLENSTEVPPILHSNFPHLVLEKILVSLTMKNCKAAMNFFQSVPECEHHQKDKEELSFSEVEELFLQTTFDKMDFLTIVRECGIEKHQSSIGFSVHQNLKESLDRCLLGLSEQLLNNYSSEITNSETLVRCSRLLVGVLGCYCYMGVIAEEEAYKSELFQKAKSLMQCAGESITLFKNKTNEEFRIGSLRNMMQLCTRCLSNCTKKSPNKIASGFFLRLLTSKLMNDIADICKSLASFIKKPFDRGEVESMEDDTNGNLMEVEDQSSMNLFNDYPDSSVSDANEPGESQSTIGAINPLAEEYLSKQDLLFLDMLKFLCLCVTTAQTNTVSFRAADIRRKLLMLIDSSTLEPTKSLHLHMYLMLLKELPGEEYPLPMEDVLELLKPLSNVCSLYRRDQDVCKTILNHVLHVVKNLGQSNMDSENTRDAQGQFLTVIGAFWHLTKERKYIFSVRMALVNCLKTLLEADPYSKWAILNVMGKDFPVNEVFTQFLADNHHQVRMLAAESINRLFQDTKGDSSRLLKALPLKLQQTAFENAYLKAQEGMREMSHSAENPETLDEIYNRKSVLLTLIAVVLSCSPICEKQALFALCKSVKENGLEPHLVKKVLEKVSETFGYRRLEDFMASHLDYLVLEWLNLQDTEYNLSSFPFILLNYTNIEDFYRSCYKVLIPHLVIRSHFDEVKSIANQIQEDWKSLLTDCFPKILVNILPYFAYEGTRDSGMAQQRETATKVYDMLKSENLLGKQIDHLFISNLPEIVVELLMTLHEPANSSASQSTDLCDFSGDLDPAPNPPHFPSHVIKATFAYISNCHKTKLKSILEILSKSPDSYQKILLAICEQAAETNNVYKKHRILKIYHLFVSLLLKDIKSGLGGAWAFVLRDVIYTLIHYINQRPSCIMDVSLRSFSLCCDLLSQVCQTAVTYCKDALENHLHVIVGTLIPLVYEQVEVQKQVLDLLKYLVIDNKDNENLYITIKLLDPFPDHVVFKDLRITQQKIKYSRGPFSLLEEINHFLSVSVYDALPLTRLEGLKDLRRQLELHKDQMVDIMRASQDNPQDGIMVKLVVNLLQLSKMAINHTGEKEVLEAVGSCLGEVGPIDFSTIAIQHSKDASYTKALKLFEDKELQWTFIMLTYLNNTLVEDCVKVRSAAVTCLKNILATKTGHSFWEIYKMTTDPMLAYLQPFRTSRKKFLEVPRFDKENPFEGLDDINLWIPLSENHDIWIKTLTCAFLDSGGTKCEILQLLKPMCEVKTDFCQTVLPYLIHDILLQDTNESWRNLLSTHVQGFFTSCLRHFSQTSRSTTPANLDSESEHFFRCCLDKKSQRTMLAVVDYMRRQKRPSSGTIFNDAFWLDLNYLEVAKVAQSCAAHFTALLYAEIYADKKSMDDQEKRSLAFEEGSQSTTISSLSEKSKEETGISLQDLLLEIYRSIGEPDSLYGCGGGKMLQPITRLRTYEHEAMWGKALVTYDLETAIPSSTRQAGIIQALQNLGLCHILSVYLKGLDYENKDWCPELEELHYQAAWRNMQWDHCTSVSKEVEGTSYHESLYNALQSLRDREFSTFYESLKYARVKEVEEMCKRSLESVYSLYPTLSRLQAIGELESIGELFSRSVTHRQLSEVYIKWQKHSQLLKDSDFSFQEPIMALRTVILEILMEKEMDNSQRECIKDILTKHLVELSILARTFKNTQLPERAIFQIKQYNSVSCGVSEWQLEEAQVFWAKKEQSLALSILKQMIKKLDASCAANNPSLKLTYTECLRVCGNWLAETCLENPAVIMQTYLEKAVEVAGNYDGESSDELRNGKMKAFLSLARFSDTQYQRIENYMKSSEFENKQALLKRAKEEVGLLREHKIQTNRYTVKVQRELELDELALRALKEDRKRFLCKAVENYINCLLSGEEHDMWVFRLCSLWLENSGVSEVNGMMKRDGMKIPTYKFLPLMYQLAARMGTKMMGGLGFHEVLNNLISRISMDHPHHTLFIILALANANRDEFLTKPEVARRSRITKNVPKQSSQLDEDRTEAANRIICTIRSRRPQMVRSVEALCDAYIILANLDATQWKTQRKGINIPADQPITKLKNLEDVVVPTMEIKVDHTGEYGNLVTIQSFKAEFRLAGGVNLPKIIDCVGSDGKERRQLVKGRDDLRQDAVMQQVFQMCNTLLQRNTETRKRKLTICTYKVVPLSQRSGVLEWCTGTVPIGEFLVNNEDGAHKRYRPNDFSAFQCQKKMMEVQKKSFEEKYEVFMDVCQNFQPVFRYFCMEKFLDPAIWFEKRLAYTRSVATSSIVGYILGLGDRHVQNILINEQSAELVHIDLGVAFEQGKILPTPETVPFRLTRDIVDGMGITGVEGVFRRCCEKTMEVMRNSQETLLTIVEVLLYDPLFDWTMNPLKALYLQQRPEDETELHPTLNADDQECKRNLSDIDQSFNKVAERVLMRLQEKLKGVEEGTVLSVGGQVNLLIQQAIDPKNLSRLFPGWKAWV

Row | IC50 [µM] | SMILES
1 | 0.001 to 0.1 | CN(C)CCCNc1ccc(-c2ccc3ncc4c(c3c2)C2(CC2)C(=O)N4C)cn1 [Example 94, 8′-(6-((3-(Dimethylamino)propyl)amino)pyridin-3-yl)-3′-methylspiro [cyclopropane-1,1′-pyrrolo[2,3-c]quinolin]-2′(3′-H)-one]
2 | > 0.1 | CN(C)CCCOc1ncc(-c2ccc3ncc4c(c3c2)N(C)C2(CC2)C(=O)N4)cc1NS(=O)(=O)c1ccccc1 [Example 87, N-(2-(3-(Dimethylamino)propoxy)-5-(1′-methyl-3′-oxo-3′-,4′-dihydro-1′H-spiro[cyclopropane-1,2′-pyrazino[2,3-c]quinolin]-9′-yl)pyridin-3-yl) benzenesulfonamide]
3 | > 0.1 | Cc1ccc(S(=O)(=O)N(C)c2cc(-c3ccc4ncc5c(c4c3)C3(CCC3)C(=O)N5C)cnc2OCCCN2CCCCC2)cn1 [Example 191, N,6-Dimethyl-N-(5-(3′-methyl-2′-oxo-2′,3′-dihydrospiro [cyclobulane-1,1′-pyrrolo[2,3-c]quinolin]-8′-yl)-2-(3-(piperidin-1-yl)propoxy)pyridin-3-yl)pyridine-3-sulfonamide 2,2,2-trifluoroacetate]
4 | > 0.1 | Cc1oncc1S(=O)(=O)Nc1cc(-c2ccc3ncc4c(c3c2)C2(CC2)C(=O)N4C)cnc1OCCCN(C)C [Example 99, N-(2-(3-(Dimethylamino)propoxy)-5-(3′-methyl-2′-oxo-2′,3′-dihydrospiro [cyclopropane-1,1′-pyrrolo[2,3-c]quinolin]-8′-yl)pyridin-3-yl)-5-methylisoxazole-4-sulfonamide]
5 | 0.001 to 0.1 | CN1C(=O)C2(CC2)c2c1cnc1ccc(-c3cnc(OCCC[N+](C)(C)[O-])c(NS(=O)(=O)c4ccccc4)c3)cc21 [Example 140, N,N-Dimethyl-3-((5-(3′-methyl-2′-oxo-2′,3′-dihydrospiro[cyclopropane-1,1′-pyrrolo[2,3-c]quinolin]-8′-yl)-3-(phenylsulfonamido)pyridin-2-yl)oxy)propan-1-amine oxide]
6 | > 0.1 | CN1C(=O)C2(CCC2)c2c1cnc1ccc(-c3cnc(OCCCN4CCCC(F)(F)C4)c(NS(C)(=O)=O)c3)cc21 [Example 298, N-(2-(3-(3,3-Difluoropiperidin-1-yl)propoxy)-5-(3′-methyl-2′-oxo-2′,3′-dihydrospiro[cyclobutane-1,1′-pyrrolo[2,3-c]quinolin]-8′-yl)pyridin-3-yl)methanesulfonamide]
7 | > 0.1 | CN(C)CCCOc1ncc(-c2ccc3ncc4c(c3c2)C2(CCCC2)C(=O)N4C)cc1NC(=O)c1ccccc1 [Example 7]
8 | 0.001 to 0.1 | CN(C)CCCOc1ncc(-c2ccc3ncc4c(c3c2)C2(CCC2)C(=O)N4C)cc1S(N)(=O)=O [Example 255, 2-(3-(Dimethylamino)propoxy)-5-(3′-methyl-2′-oxo-2′,3′-dihydrospiro[cyclobutane-1,1′-pyrrolo[2,3-c]quinolin]-8′-yl)pyridine-3-sulfonamide]

same assay, conditions: pKAP1 in etoposide-treated MCF-7 cells

Row | SMILES | IC50 [µM]
9 | CC(C)NCCOc1ncc(-c2cc3c4c(cnc3cn2)N(C)C(=O)C42CCC2)cc1NS(C)(=O)=O [Example 562, N-(2-(2-(Isopropylamino)ethoxy)-5-(3′-methyl-2′-oxo-2′,3′-dihydrospiro [cyclobutane-1,1′-pyrrolo[2,3-c] [1,7]naphthyridin]-8′-yl)pyridin-3-yl)methanesulfonamide] | > 0.1
10 | CC(C)NCCOc1ncc(-c2cc3c4c(cnc3cc2F)N(C)C(=O)C42CCC2)cc1NS(=O)(=O)CC#N [Example 374, 1-Cyano-N′-(5-(7′-fluoro-3′-methyl-2′-oxo-2′,3′-dihydrospiro[cyclobutane-1,1′-pyrrolo[2,3-c]quinolin]-8′-yl)-2-(2-(isopropylamino)ethoxy)pyridin-3-yl) methanesulfonamide hydrochloride] | 0.001 to 0.1
11 | CC(C)NCCOc1ncc(-c2ccc3ncc4c(c3c2F)C2(CCC2)C(=O)N4C)cc1NS(C)(=O)=O [Example 556, N-(5-(9′-Fluoro-3′-methyl-2′-oxo-2′,3′-dihydrospiro[cyclobutane-1,1′-pyrrolo[2,3-c]quinolin]-8′-yl)-2-(2-(isopropylamino)ethoxy)pyridin-3-yl)methanesulfonamide hydrochloride] | 0.001 to 0.1
12 | CC(C)NCCOc1ncc(-c2cc3c4c(cnc3cc2F)N(C)C(=O)C42CC3(CCNCC3)C2)cc1NS(C)(=O)=O [Example 458, N-(5-(7′--Fluoro-3″-methyl-2″-oxo-2″,3″-dihydrodispiro [piperidine-4,1′-cyclobutane-31″-pyrrolo[2,3-c]quinolin]-8″-yl)-2-(2-(isopropylamino)ethoxy)pyridin-3-yl) methanesulfonamide] | > 0.1
13 | CC(C)NCCOc1ncc(-c2cc3c4c(cnc3cc2F)N(C)C(=O)C42CN(C(=O)c3ccccc3)C2)cc1NS(C)(=O)=O [Example 516, N-(5-(1-Benzoyl-7′-fluoro-3′-methyl-2′-oxo-2′,3′-dihydrospiro[azetidine-3,1′-pyrrolo[2,3-c]quinolin]-8′-yl)-2-(2-(isopropylamino)ethoxy)pyridin-3-yl)methanesulfonamide] | > 0.1
14 | CC(C)NCCOc1ncc(-c2cc3c4c(cnc3cc2F)N(C)C(=O)C42CN([C@H]3CC[C@@H](O)CC3)C2)cc1NS(C)(=O)=O [Example 504, N-(5-(7′-Fluoro-1-(cis-4-hydroxycyclohexyl)-3′-methyl-2′-oxo-2′,3′-dihydrospiro[azetidine-3,1′-pyrrolo[2,3-c]quinolin]-8′-yl)-2-(2-(isopropylamino)ethoxy)pyridin-3-yl)methanesulfonamide] | > 0.1
15 | CC(C)NCCOc1ncc(-c2cc3c(cc2F)ncc2c3[C@]3(C[C@@H](COC(C)C)C3)C(=O)N2C)cc1NS(=O)(=O)C(C)C [Example 413, trans-N-{5-(7′-Fluoro-3-(isopropoxymethyl)-3′-methyl-2′-oxo-2′,3′-dihydrospiro[cyclobutane-1,1′-pyrrolo[2,3-c]quinolin]-8′-yl)-2-(2-(isopropylamino)ethoxy)pyridin-3-yl)propane-2-sulfonamide] | 0.001 to 0.1
16 | CN(C)c1ncc(-c2cc3c4c(cnc3cc2F)N(C)C(=O)C42CCC2)cn1 [Example 364, 8′-(2-(Dimethylamino)pyrimidin-5-yl)-7′-fluoro-3′-methylspiro[cyclobutane-1,1′-pyrrolo[2,3-c]quinolin]-2′(3′-H)-one] | > 0.1

Further lines, results first:

Row | IC50 [µM] | SMILES
17 | 0.001 to 0.1 | CC(C)NCCOc1ncc(-c2cc3c(cc2F)ncc2c3[C@]3(C[C@@H](C)C3)C(=O)N2C)cc1NS(C)(=O)=O [Example 447, trans-N-(5-(7′-Fluoro-3,3′-dimethyl-2′-oxo-2′,3′-dihydrospiro[cyclobutane-1,1′-pyrrolo[2,3-c]quinolin]-8′-yl)-2-(2-(isopropylamino)ethoxy)pyridin-3-yl)methanesulfonamide]
18 | 0.001 to 0.1 | CCCN1CC2(C1)C(=O)N(C)c1cnc3cc(F)c(-c4cnc(OCCNC(C)C)c(NS(C)(=O)=O)c4)cc3c12 [Example 488, N-(5-(7′-Fluoro-3′-methyl-2′-oxo-1-propyl-2′,3′-dihydrospiro[azetidine-3,1′-pyrrolo[2,3-c]quinolin]-8′-yl)-2-(2-(isopropylamino)ethoxy)pyridin-3-yl)methanesulfonamide]
19 | 0.001 to 0.1 | CC(C)NCCOc1ncc(-c2cc3c(cc2F)ncc2c3[C@]3(C[C@@H](O)C3)C(=O)N2C)cc1NS(C)(=O)=O [Example 382, trans-N-(5-(7′-Fluoro-3-hydroxy-3′-methyl-2′-oxo-2′,3′-dihydrospiro[cyclobutane-1,1′-pyrrolo[2,3-c]quinolin]-8′-yl)-2-(2-(isopropylamino)ethoxy)pyridin-3-yl)methanesulfonamide]
20 | > 0.1 | CC(C)NCCOc1ncc(-c2cc3c4c(cnc3cc2F)N(C)C(=O)C42CN(c3nnn(C)n3)C2)cc1NS(C)(=O)=O [Example 552, N-(5-(7′-Fluoro-3′-methyl-1-(2-methyl-2H-tetrazol-5-yl)-2′-oxo-2′,3′-dihydrospiro[azetidine-3,1′-pyrrolo[2,3-c]quinolin]-8′-yl)-2-(2-(isopropylamino)ethoxy)pyridin-3-yl)methanesulfonamide]
21 | 0.001 to 0.1 | CC(C)CN1CC2(C1)C(=O)N(C)c1cnc3cc(F)c(-c4cnc(OCCNC(C)C)c(NS(C)(=O)=O)c4)cc3c12 [Example 491, N-(5-(7′-Fluoro-1-isobutyl-3′-methyl-2′-oxo-2′,3′-dihydrospiro[azetidine-3,1′-pyrrolo[2,3-c]quinolin]-8′-yl)-2-(2-(isopropylamino)ethoxy)pyridin-3-yl)methanesulfonamide]
22 | > 0.1 | CC(C)NCCOc1ncc(-c2cc3c4c(cnc3cc2F)N(C)C(=O)C42CN(C[C@H](O)CO)C2)cc1NS(C)(=O)=O [Example 510, (S)-N-(5-(1-(2,3-Dihydroxypropyl)-7′-fluoro-3′-methyl-2′-oxo-2′,3′-dihydrospiro[azetidine-3,1′-pyrrolo[2,3-c]quinolin]-8′-yl)-2-(2-(isopropylamino)ethoxy)pyridin-3-yl)methanesulfonamide]
23 | 0.001 to 0.1 | CCO[C@H]1C[C@@]2(C1)C(=O)N(C)c1cnc3cc(F)c(-c4cnc(OCCNC(C)C)c(NS(C)(=O)=O)c4)cc3c12 [Example 394, trans-N-(5-(3-Ethoxy-7′-fluoro-3′-methyl-2′-oxo-2′,3′-dihydrospiro[cyclobutane-1,1′-pyrrolo[2,3-c]quinolin]-8′-yl)-2-(2-(isopropylamino)ethoxy)pyridin-3-yl)methanesulfonamide]
